The test system of one test is Sclerotinia sclerotiorum. Put plainly: Test for Sclerotinia sclerotiorum-controlling effect on cucumbers. In kind it is in vivo. The following applies: cucumber; 100 ppm active ingredient, 7 ml per pot; 3 days after inoculation. The method, then:
An aqueous dilution of the test compound in the form of a wettable powder preparation was applied to cucumbers, cultured in pots of 9 cm in diameter, when the first leaf was almost developed, at a rate of 7 ml per pot. After one day, Sclerotinia sclerotiorum was inoculated on the surface of the leaf, and the infectious state was examined three days thereafter. The degree of damage was determined in the following manner. The rate of infectious area on the leaf was measured and classified in one of the six infectious indexes (0, 1, 2, 3, 4, 5) according to the undermentioned criteria. The number of leaves corresponding to each infectious index (n0, n1, n2, n3, n4, n5) was determined, and calculation was effected according to the undermentioned equation.

Test [1] has as its system Botrytis cinerea. Put plainly: Test for Botrytis cinerea on cucumbers: systemic activity by the water culture method. Format: in vivo. The following applies: cucumber, 5 ppm solution, 3 days, 3 days after inoculation. The method, then:
The systemic activity of the test compound was tested by the water culture method in the following manner. The plants were pulled out from the pots carefully so as not to damage the roots, and the soil attached to the roots was well removed by water-washing. The plants were placed into flasks containing a 5 ppm solution of the test compound (50 ml) and allowed to stand for 3 days at a constant temperature under illumination. Agar discs with the mycelium were attached to the cotyledons for inoculation, and the degree of damage was examined three days thereafter.
(§1) Percentage of control was determined by the following procedure. The rate of diseased area on the tested leaf was measured and classified in one of the six infectious indexes (0, 1, 2, 3, 4, 5) according to the undermentioned criteria. The number of leaves corresponding to each infectious index (n0, n1, n2, n3, n4, n5) was determined, and calculation was effected according to the undermentioned equation.

The subject of test [2] is Botrytis cinerea. Put plainly: Test for Botrytis cinerea on cucumbers: effect of prevention of diseased spot-development. In kind it is in vivo. The following applies: cucumber, 7 ml per pot, applied one day after inoculation. The method, then: The test for examining the effect of prevention of diseased spot-development was carried out in the following manner. An agar disc with the mycelium was attached to the first leaf for inoculation. After one day, the diameter of the diseased spot was measured. The solution of the test compound was applied to the plant at a rate of 7 ml per pot, and two days thereafter, the diameter of the diseased spot was again measured, and the effect for prevention of diseased spot-development was calculated according to the following equation: [formula]

For test [3], the system named is Botrytis cinerea. The experiment in a line: Test for Botrytis cinerea-controlling effect on cucumbers: disease preventing effect. Format: in vivo. The following applies: cucumber; 50 ppm active ingredient, 7 ml per pot; 3 days after inoculation. The method, then: An aqueous dilution of the test compound in the form of a wettable powder preparation was applied to cotyledons of cucumbers, cultered in pots of 9 cm in diameter and the first leaf was nipped off when it developed, at a rate of 7 ml per pot. After one day, agar discs (diameter: 5 mm) with Botrytis cinerea were attached to the leaves for inoculation. Three days thereafter, the disease severity was observed, and the disease-controllingeffect was estimated.
as §1

Another test has as its system Pellicularia sasakii. The experiment in a line: Test for Pellicularia sasakii-controlling effect on rice plants. In kind it is in vivo. To be noted: dust, 1.4 % active ingredient, 3 kg per 10 a, 5 days after inoculation. The method, then:
The test compound in the form of a dust preparation was applied to rice plants (variety: Wase-Asahi), cultured in porcelain Wagner pots (1/500 a) and grown up to a grass height of 50 to 60 cm, at a rate of 3 kg per 10 a by the use of a duster. After one day, a mycelial disc of Pellicularia sasakii was attached to the sheath of each stem for inoculation. Five days thereafter, the size of the diseased spot generated on the sheath was measured, and the degree of damage was calculated according to the following equation to estimate the disease-controlling effect of the compound. [formula]

In a further test the test system is Alternaria bracissicola. The experiment in a line: Test for Alternaria bracissicola-controlling effect (chinese cabbage). In kind it is in vivo. To be noted: 7 ml per pot. The method, then:
An aqueous dilution of the test compound in the form of a wettable powder preparation was applied to chinese cabbage (variety: Nozaki No. 2), cultured in pots of 9 cm in diameter and almost grown up to the two leaved stage, at a rate of 7 ml per pot. After one day, a spore suspension of Alternaria bracissicola was sprayed on the surface of the leaf for inoculation. The pots were left in a dark, moist room for one day and then under illumination for 2 days. Then, the infectious state was examined. The degree of damage was determined in the following manner. The rate of infectious area on the leaf was measured and classified in one of the infectious indexes (0, 1, 2, 3, 4, 5) according to the undermentioned criteria. The number of leaves corresponding to each infectious index (n0, n1, n2, n3, n4, n5) was determined, and calculation was effected according to the undermentioned equation.

The test system of test [4] is Chaetomium globosum ATCC 6205. Put plainly: Antimicrobial spectrum against industrial fungi, agar medium dilution method: Chaetomium globosum. Format: cell-based. The following applies: ATCC6205, C. globosum, read-out: Minimal inhibitory concentration of active ingredient. An excerpt:
(§2) The effect for inhibition of hyphae growth was examined by the agar medium dilution method on Aspergillus niger ATCC 6275, Cladosporium herbarum IAM F 517 and Chaetomium globosum ATCC 6205 multiplying on industrial products and damaging them.

In test [5] the test system is Cladosporium herbarum IAM F 517. The experiment in a line: Antimicrobial spectrum against industrial fungi, agar medium dilution method: Cladosporium herbarum. Format: cell-based. The following applies: IAMF517, C. herbarum, read-out: Minimal inhibitory concentration of active ingredient.
Source text: as §2

The subject of test [6] is Aspergillus niger ATCC 6275. Put plainly: Antimicrobial spectrum against industrial fungi, agar medium dilution method: Aspergillus niger. Format: cell-based. To be noted: ATCC6275, A. niger, read-out: Minimal inhibitory concentration of active ingredient.
Source text: as §2

Values after ≈ are worked out from the molar mass of the structure shown.

`C=CCS(=O)(=O)N1CC(=O)N(c2cc(Cl)cc(Cl)c2)C1=O` [Compound 63] had a Degree of damage with Sclerotinia sclerotiorum of 9%.

In the case of `CC(C)S(=O)(=O)N1CC(=O)N(c2cc(Cl)cc(Cl)c2)C1=O` [Compound 56], the “Disease-preventing value: Systemic activity” value with Botrytis cinerea [1] worked out at 92%. Also, in the test on Botrytis cinerea [2] (100 ppm), the “Effect for prevention of diseased spot-development” value (“Effect for prevention” for short) was 78%. Moreover, the “Disease-preventing value: Disease preventing effect” value in the test with Botrytis cinerea [3] was found to be 100%. Besides, the Degree of damage amounted to 0% in the test with Sclerotinia sclerotiorum and 19% with Pellicularia sasakii.

For the compound `CCCCS(=O)(=O)N1CC(=O)N(c2cc(Cl)cc(Cl)c2)C1=O` [Compound 57], the “Disease-preventing value: Systemic activity” value in the test on Botrytis cinerea [1] was 79%. Besides, the “Effect for prevention” value in the test on Botrytis cinerea [2] (100 ppm) amounted to 65%. Also, the “Disease-preventing value: Disease preventing effect” value in the test on Botrytis cinerea [3] came to 98%. Besides, the Degree of damage is recorded as 1% in the test with Alternaria bracissicola (100 ppm active ingredient), 0% in the test with Alternaria bracissicola (200 ppm active ingredient) and 0% in the test on Sclerotinia sclerotiorum.

On to `CCC(C)S(=O)(=O)N1CC(=O)N(c2cc(Cl)cc(Cl)c2)C1=O` (stereo not shown) [Compound 59], for which the MIC in [4], in test [5] and in [6] was 1000 µg/mL (≈ 2740 µM) in each case. The Degree of damage in the test with Pellicularia sasakii stood at 19%.

Take `CCCS(=O)(=O)N1C(=O)N(c2cc(Cl)cc(Cl)c2)C(=O)C1(C)C` [Compound 69]: the Degree of damage amounted to 21% in the test with Alternaria bracissicola (100 ppm active ingredient) and 6% in the test with Alternaria bracissicola (200 ppm active ingredient).

Regarding `CCCS(=O)(=O)N1C(=O)N(c2cc(Cl)cc(Cl)c2)C(=O)C1C` (stereo not shown) [Compound 66], the values for the Degree of damage in the test with Sclerotinia sclerotiorum and in the test with Pellicularia sasakii were 3% and 16%, respectively.

Turning to `CCS(=O)(=O)N1CC(=O)N(c2cc(Cl)cc(Cl)c2)C1=O` [Compound 54], the Degree of damage was 5% in the test on Alternaria bracissicola (100 ppm active ingredient), 2% in the test with Alternaria bracissicola (200 ppm active ingredient) and 12% in the test with Sclerotinia sclerotiorum.

As to `CCCS(=O)(=O)N1CC(=O)N(c2cc(Cl)cc(Cl)c2)C1=O` [Compound 55], in the test on Botrytis cinerea [1], the “Disease-preventing value: Systemic activity” value worked out at 88%. In addition, the “Effect for prevention” value in the test on Botrytis cinerea [2] (100 ppm) is listed as 88%. In the test on Botrytis cinerea [3], the “Disease-preventing value: Disease preventing effect” value was found to be 100%. In addition, the Degree of damage in the test with Alternaria bracissicola (100 ppm active ingredient) was determined as 0%; with Alternaria bracissicola (200 ppm active ingredient) it was 0%; in the test with Sclerotinia sclerotiorum it was 0%; with Pellicularia sasakii, 25%.

In the case of `CS(=O)(=O)N1CC(=O)N(c2cc(Cl)cc(Cl)c2)C1=O` [Compound 53], the Degree of damage with Alternaria bracissicola (100 ppm active ingredient) was 7%; with Alternaria bracissicola (200 ppm active ingredient) it was 11%.

In the case of `CCC(=O)N1CC(=O)N(c2cc(Cl)cc(Cl)c2)C1=O` [reference compound], the “Disease-preventing value: Systemic activity” value in the test with Botrytis cinerea [1] was 0%. Moreover, in the test on Botrytis cinerea [2] (500 ppm), the “Effect for prevention” value was 21%. Also, in the test on Botrytis cinerea [3], the “Disease-preventing value: Disease preventing effect” value is 89%.

In turn, `CCCS(=O)(=O)N1CC(=O)N(c2cc(Br)cc(Br)c2)C1=O` [Compound 64] showed a Degree of damage in the test on Sclerotinia sclerotiorum of 0%.

Take `O=C1CN(S(=O)(=O)CCCCl)C(=O)N1c1cc(Cl)cc(Cl)c1` [Compound 70]: the Degree of damage in the test on Alternaria bracissicola (100 ppm active ingredient) was found to be 2%; with Alternaria bracissicola (200 ppm active ingredient) it was 1%; in the test with Sclerotinia sclerotiorum it was 0%.

Take `O=C1CNC(=O)N1c1cc(Cl)cc(Cl)c1` [reference compound]: the “Disease-preventing value: Systemic activity” value with Botrytis cinerea [1] is recorded as 0%. The “Effect for prevention” value in the test with Botrytis cinerea [2] (500 ppm) is listed as 13%. Also, in the test with Botrytis cinerea [3], the “Disease-preventing value: Disease preventing effect” value worked out at 70%.

As to `CCCCNC(=O)n1c(NC(=O)OC)nc2ccccc21` [Methyl-1-(butylcarbamoyl)-2-benzimidazole carbamate, reference compound], in the test on Botrytis cinerea [1], the “Disease-preventing value: Systemic activity” value came to 91%. The “Effect for prevention” value in the test on Botrytis cinerea [2] (500 ppm) stood at 87%. Besides, the “Disease-preventing value: Disease preventing effect” value in the test with Botrytis cinerea [3] is reported as 90%. In the test with Sclerotinia sclerotiorum, this compound showed a Degree of damage of 32%.

As for `CCCCCS(=O)(=O)N1CC(=O)N(c2cc(Cl)cc(Cl)c2)C1=O` [Compound 61], the figures for the MIC in [4], in test [5] and in test [6] were 1000 µg/mL (≈ 2640 µM), 2000 µg/mL (≈ 5270 µM) and 1000 µg/mL (≈ 2640 µM), respectively.

As to `CC(C)CS(=O)(=O)N1CC(=O)N(c2cc(Cl)cc(Cl)c2)C1=O` [Compound 58], the “Disease-preventing value: Systemic activity” value with Botrytis cinerea [1] is 63%. Further, the “Effect for prevention” value in the test on Botrytis cinerea [2] (100 ppm) worked out at 73%. In the test on Botrytis cinerea [3], the “Disease-preventing value: Disease preventing effect” value turned out to be 100%.

The values above are taken from patent US4056622A, “N-sulfonyl-N-dihalophenylimidazolidinediones” (Sumitomo Chemical Company, Limited, priority 1975, dated 1977).
